# Results: US9266834B2, “1, 4-disubstituted 3-cyano-pyridone derivatives and their use as positive allosteric modulators of MGLUR2-receptors” (JANSSEN PHARMACEUTICALS, INC., priority 2006, dated 2016)
# Target: T1, human mGluR2 receptor (Homo sapiens, UniProt Q14416)
# T1 construct: expressed in transfected cells; host or cells: CHO cells (membrane preparation)
# Test: [35S]GTPγS binding assay (GTPγS-PAM): positive allosteric modulation in presence of glutamate at EC25, membranes from transfected CHO cells
# Type: biochemical
# Conditions: in presence of mGluR2 agonist glutamate at predetermined EC25 concentration, averages of duplicate values of 11-concentration response curves
# Excerpt: The compounds provided in the present invention are positive allosteric modulators of mGluR2. These compounds appear to potentiate glutamate responses by binding to an allosteric site other than the glutamate binding site. The response of mGluR2 to a concentration of glutamate is increased when compounds of Formula (I) are present. Compounds of Formula (I) are expected to have their effect substantially at mGluR2 by virtue of their ability to enhance the function of the receptor. The behaviour of positive allosteric modulators tested at mGluR2 using the [^35S]GTPγS binding assay method described below and which is suitable for the identification of such compounds, and more particularly the compounds according to Formula (I), are shown in Table 4.
# [^35S]GTPγS Binding Assay
# The [^35S]GTPγS binding is a functional membrane-based assay used to study G-protein coupled receptor (GPCR) function whereby incorporation of a non-hydrolysable form of GTP, [^35S]GTPγS (guanosine 5′-triphosphate, labelled with […] ^35S), is measured. The G-protein o subunit catalyzes the exchange of guanosine 5′-diphosphate (GDP) by guanosine triphosphate (GTP) and on activation of the GPCR by an agonist, [^35S]GTPγS, becomes incorporated and cannot be cleaved to continue the exchange cycle (Harper (1998) Current Protocols in Pharmacology 2.6.1-10, John Wiley & Sons, Inc.). […] Here we describe the use of the [^35S]GTPγS binding assay using membranes from cells transfected with the human mGluR2 receptor and adapted from Schaffhauser et al ((2003) Molecular Pharmacology 4:798-810) for the detection of the positive allosteric modulation (PAM) properties of the compounds of this invention.
# CHO-cells were cultured to pre-confluence and stimulated with 5 mM butyrate for 24 hours, prior to washing in PBS, and then collection by scraping in homogenisation buffer (50 mM Tris-HCl buffer, pH 7.4, 4° C.). Cell lysates were homogenized briefly (15 s) using an ultra-turrax homogenizer. The homogenate was centrifuged at 23 500×g for 10 minutes and the supernatant discarded. The pellet was resuspended in 5 mM Tris-HCl, pH 7.4 and centrifuged again (30 000×g, 20 min, 4° C.). The final pellet was resuspended in 50 mM HEPES, pH 7.4 and stored at −80° C. in appropriate aliquots before use. Protein concentration was determined by the Bradford method (Bio-Rad, USA) with bovine serum albumin as standard.
# Measurement of mGluR2 positive allosteric modulators in membranes containing human mGluR2 was performed using frozen membranes that were thawed and briefly homogenised prior to pre-incubation in 96-well microplates (15 μg/assay well, 30 minutes, 30° C.) in assay buffer (50 mM HEPES pH 7.4, 100 mM NaCl, 3 mM MgCl2, 50 μM GDP, 10 μg/ml saponin,) with increasing concentrations of positive allosteric modulator (from 0.3 nM to 50 μM) and either a minimal pre-determined concentration of glutamate (PAM assay), or no added glutamate. For the PAM assay, membranes were pre-incubated with glutamate at EC25 concentration, i.e. a concentration that gives 25% of the maximal response glutamate, and is in accordance to published data (Pin et al. (1999) Eur. J. Pharmacol. 375:277-294). After addition of [^35S]GTPγS (0.1 nM, f.c.) to achieve a total reaction volume of 200 μl, microplates were shaken briefly and further incubated to allow [^35S]GTPγS incorporation on activation (30 minutes, 30° C.). The reaction was stopped by rapid vacuum filtration over glass-fibre filter plates (Unifilter 96-well GF/B filter plates, Perkin-Elmer, Downers Grove, USA) microplate using a 96-well plate cell harvester (Filtermate, Perkin-Elmer, USA), and then by washing three times with 300 μl of ice-cold wash buffer (Na2PO4.2H2O 10 mM, NaH2PO4.H2O 10 mM, pH=7.4). Filters were then air-dried, and 40 μl of liquid scintillation cocktail (Microscint-O) was added to each well, and membrane-bound [^35S]GTPγS was measured in a 96-well scintillation plate reader (Top-Count, Perkin-Elmer, USA). […]
# T1 sequence (Q14416 19-872): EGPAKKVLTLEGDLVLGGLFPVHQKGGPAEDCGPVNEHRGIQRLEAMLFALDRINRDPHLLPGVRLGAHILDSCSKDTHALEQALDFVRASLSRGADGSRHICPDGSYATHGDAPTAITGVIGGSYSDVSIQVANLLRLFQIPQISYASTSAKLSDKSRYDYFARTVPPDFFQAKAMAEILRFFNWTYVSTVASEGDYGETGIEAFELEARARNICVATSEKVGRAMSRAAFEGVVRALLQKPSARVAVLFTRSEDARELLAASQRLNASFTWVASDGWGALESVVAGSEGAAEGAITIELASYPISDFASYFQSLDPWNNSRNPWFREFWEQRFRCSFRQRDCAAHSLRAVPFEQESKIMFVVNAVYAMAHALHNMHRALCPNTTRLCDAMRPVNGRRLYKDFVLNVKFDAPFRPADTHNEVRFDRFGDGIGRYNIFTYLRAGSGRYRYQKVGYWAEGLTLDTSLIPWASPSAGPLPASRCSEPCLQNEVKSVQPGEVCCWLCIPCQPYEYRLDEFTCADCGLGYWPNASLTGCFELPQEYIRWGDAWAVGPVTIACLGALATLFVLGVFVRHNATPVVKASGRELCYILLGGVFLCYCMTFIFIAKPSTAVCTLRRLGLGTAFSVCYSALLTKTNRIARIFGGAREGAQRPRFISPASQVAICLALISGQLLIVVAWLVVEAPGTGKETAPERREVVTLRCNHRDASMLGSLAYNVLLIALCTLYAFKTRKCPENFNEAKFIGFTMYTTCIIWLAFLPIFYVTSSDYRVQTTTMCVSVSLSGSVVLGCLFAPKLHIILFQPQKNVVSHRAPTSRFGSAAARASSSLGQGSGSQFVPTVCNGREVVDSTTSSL
row,SMILES,GTPgS - hR2 PAM pEC50
1,"CCCCn1ccc(-c2ccc(Oc3ccnc(C)c3)cc2)c(C#N)c1=O [1-064, 3-cyano-1-butyl-4-[4-(2-methyl-pyridin-4-yloxy)-phenyl]-pyridine-2(1H)-one]",6.4

# Same assay, conditions: in presence of mGluR2 agonist glutamate at predetermined EC25 concentration, averages of duplicate values of 11-concentration response curves, read-out: GTPgS - hR2 PAM pEC50 (converted)
row,SMILES,EC50 [nM]
1,CCCCn1ccc(N2CCC(COc3ccccn3)CC2)c(C#N)c1=O [4-006],501
2,CC(C)CCn1ccc(C2CCN(Cc3cccc(C(F)(F)F)c3)CC2)c(C#N)c1=O [3-014],200
3,CCCCn1ccc(N2CCC(Oc3ccccn3)CC2)c(C#N)c1=O [4-005],501
4,CC(C)CCn1ccc(-c2ccc(OCCC3(C)OCCO3)cc2)c(C#N)c1=O [1-136],631
5,CC(C)CCn1ccc(Nc2ccc(Oc3ccncc3)cc2)c(C#N)c1=O [1-302],1260
6,CC(C)CCn1ccc(N2CCN(Cc3cccc(C(F)(F)F)c3)CC2)c(C#N)c1=O [2-014],794
7,CC(C)CCn1ccc(-c2ccc3sccc3c2)c(C#N)c1=O [1-259],200
8,CCCCn1ccc(N2CCN(c3nccc(NCC)n3)CC2)c(C#N)c1=O [2-008],1580
9,CC(C)CCn1ccc(OC2CCN(Cc3cccc(C(F)(F)F)c3)CC2)c(C#N)c1=O [3-008],316
10,COc1cccc(CCc2ccn(CCC(C)C)c(=O)c2C#N)c1 [1-264],1580
11,COc1cc(-c2ccn(CCC(C)C)c(=O)c2C#N)ccc1OC(C)=O [1-125],5010
12,CC(C)CCn1ccc(N2CCC(Oc3ccc(F)cc3)CC2)c(C#N)c1=O [4-018],501
13,CC(C)CCn1ccc(N2CCC(c3ccccc3)CC2)c(C#N)c1=O [4-014],63.1
14,CCCCn1ccc(-c2cccc(Oc3ccncc3C(F)(F)F)c2)c(C#N)c1=O [1-069],2510
15,CCCCn1ccc(N2CCC(COc3cccnc3)CC2)c(C#N)c1=O [4-007],1580
16,CC(C)CCn1ccc(-c2ccc3[nH]ncc3c2)c(C#N)c1=O [5-021],1580
17,N#Cc1c(N2CCN(Cc3cccc(F)c3)CC2)ccn(Cc2ccc(F)cc2)c1=O [2-050],2510
18,COc1ccc(-c2ccn(Cc3ccc(Cl)cc3)c(=O)c2C#N)cc1 [1-027],501
19,CC(C)CCn1ccc(OCc2ccc(OCc3ccccc3)cc2)c(C#N)c1=O [1-289],79.4
20,N#Cc1c(N2CCN(Cc3ccccc3)CC2)ccn(CCOCc2ccccc2)c1=O [2-054],5010
21,CC(C)CCn1ccc(-c2ccc(OC3CCCC3)cc2)c(C#N)c1=O [1-135],1000
22,CC(C)CCn1ccc(-c2ccc(COCC#N)cc2)c(C#N)c1=O [1-132],2000
23,CC(C)CCn1ccc(C2CCN(Cc3ccccc3)C2)c(C#N)c1=O (centres unmarked) [5-007],1260

row,SMILES,EC50 [nM]
1,CC(C)CCn1ccc(-c2ccc(OCC3CC3)cc2)c(C#N)c1=O [1-133],200
2,CC(C)CCn1ccc(-c2ccco2)c(C#N)c1=O [1-081],6310
3,CCCCn1ccc(N2CCC(c3ccccn3)CC2)c(C#N)c1=O [4-001],2000
4,COCCCc1ccc(-c2ccn(CCC(C)C)c(=O)c2C#N)cc1 [1-106],631
5,CC(C)CCn1ccc(-c2ccc(NC3CCS(=O)(=O)CC3)cc2)c(C#N)c1=O [1-217],2510
6,CC(C)CCn1ccc(-c2ccc(N3CCCC3=O)cc2)c(C#N)c1=O [1-249],3980
7,CCCCn1ccc(-c2ccc(Oc3ccc(C#N)cn3)cc2)c(C#N)c1=O [1-072],1580
8,CC(C)CCn1ccc(Nc2ccc(N3CCOCC3)cc2)c(C#N)c1=O [1-300],2000
9,CC(C)CCn1ccc(Nc2ccc(Oc3ccccc3)cc2)c(C#N)c1=O [1-301],200
10,CC(C)CCn1ccc(N2CCN(CCOc3ccc(F)cc3)CC2)c(C#N)c1=O [2-019],6310
11,CC(C)CCn1ccc(-c2ccc(NCc3cccnc3)cc2)c(C#N)c1=O [1-209],1260
12,CC(C)CCn1ccc(-c2ccc(Br)c(Br)c2)c(C#N)c1=O [1-092],63.1
13,N#Cc1c(N2CCN(Cc3ccccc3)CC2)ccn(CCOc2ccccc2)c1=O [2-053],631
14,COC(=O)c1cccc(-c2ccn(CCC(C)C)c(=O)c2C#N)c1 [1-242],3980
15,CC(C)CCn1ccc(N2CCN(c3ncccn3)CC2)c(C#N)c1=O [2-028],794
16,CC(C)CCn1ccc(-c2ccc(N3Cc4ccccc4C3)cc2)c(C#N)c1=O [1-237],398
17,CC(C)CCn1ccc(N2CCC(N(C)CCc3cccc(C(F)(F)F)c3)CC2)c(C#N)c1=O [4-032],398
18,CCCCn1ccc(N2CCN(c3nccc(OC)n3)CC2)c(C#N)c1=O [2-007],1000
19,CCCCn1ccc(-c2ccc3c(cnn3Cc3ccccn3)c2)c(C#N)c1=O [5-023],794
20,N#Cc1c(Nc2ccc(Oc3ccncc3)cc2)ccn(CC2CC2)c1=O [1-295],3980
21,COc1ccc(C#Cc2ccn(CCC(C)C)c(=O)c2C#N)cc1 [1-268],50.1
22,CC(C)CCn1ccc(N2CCC3(CCc4ccccc43)CC2)c(C#N)c1=O [5-033],39.8
23,CC(C)CCn1ccc(-c2ccc(Nc3ccccc3)cc2)c(C#N)c1=O [1-193],5010

row,SMILES,EC50 [nM]
1,CC(C)CCn1ccc(-c2ccc(OC3CCCC3)c(Cl)c2)c(C#N)c1=O [1-124],50.1
2,N#Cc1c(-c2ccccc2)ccn(CCCc2ccccc2)c1=O [1-053],5010
3,Cc1ccc(OC2CCN(c3ccn(CCC(C)C)c(=O)c3C#N)CC2)cc1 [4-017],126
4,CC1CN(Cc2cc(F)cc(F)c2)CCN1c1ccn(Cc2ccc(OC(F)(F)F)cc2)c(=O)c1C#N (centres unmarked) [2-045],501
5,CCCCn1ccc(N[C@H]2CC[C@H](c3ccccc3)CC2)c(C#N)c1=O [1-297],200
6,Cc1ccc(-c2ccn(CCC(C)C)c(=O)c2C#N)cc1[N+](=O)[O-] [1-214],794
7,CC(C)CCn1ccc(-c2ccc(N3CCN(c4ccccc4)CC3)cc2)c(C#N)c1=O [1-233],631
8,COCCN(C)c1ccc(-c2ccn(CCC(C)C)c(=O)c2C#N)cc1OC [1-185],1000
9,N#Cc1c(N2CCN(c3ccccn3)CC2)ccn(Cc2ccc(F)cc2)c1=O [2-055],3980
10,CC(C)CCn1ccc(-c2ccc(N(C)c3ccccc3)cc2)c(C#N)c1=O [1-195],126
11,N#Cc1c(N2CCC(c3ccccc3)CC2)ccn(CC2CCCCO2)c1=O (centres unmarked) [4-048],2000
12,CC(C)CCn1ccc(N2CCN(CCc3ccccc3)CC2)c(C#N)c1=O [2-017],200
13,CC(C)CCn1ccc(N(C)Cc2ccccc2)c(C#N)c1=O [1-303],3160
14,CCCCn1ccc(-c2ccc(Oc3ccncc3)cc2F)c(C#N)c1=O [1-066],501
15,CC(C)CCn1ccc(-c2ccc(OCCN3CCOCC3)cc2)c(C#N)c1=O [1-139],3980
16,CCCCn1ccc(N2CCC(c3cccnc3)CC2)c(C#N)c1=O [4-002],3980
17,N#Cc1c(OCc2ccc(CN3CCOCC3)cc2)ccn(Cc2ccc(OC(F)(F)F)cc2)c1=O [1-271],158
18,CC(C)CCn1ccc(N2CCC(OCc3cccc(C(F)(F)F)c3)CC2)c(C#N)c1=O [4-020],126
19,CC(C)CCn1ccc(N2CCC(N(C)Cc3cccc(C(F)(F)F)c3)CC2)c(C#N)c1=O [4-028],100
20,CC(C)CCn1ccc(N2CCN(c3ccccn3)CC2)c(C#N)c1=O [2-024],2000
21,COc1ccc(-c2ccn(Cc3ccccc3C)c(=O)c2C#N)cc1 [1-016],2000
